From publication PMC546329, “SIRT1 Regulates HIV Transcription via Tat Deacetylation” (PLoS Biology, 2005)

Biological target: T1, SIRT1 (Homo sapiens, UniProt Q96EB6)
T1 construct: FLAG-tagged SIRT1 immunoprecipitated from HEK 293 cells
T1 sequence (Q96EB6 2-747): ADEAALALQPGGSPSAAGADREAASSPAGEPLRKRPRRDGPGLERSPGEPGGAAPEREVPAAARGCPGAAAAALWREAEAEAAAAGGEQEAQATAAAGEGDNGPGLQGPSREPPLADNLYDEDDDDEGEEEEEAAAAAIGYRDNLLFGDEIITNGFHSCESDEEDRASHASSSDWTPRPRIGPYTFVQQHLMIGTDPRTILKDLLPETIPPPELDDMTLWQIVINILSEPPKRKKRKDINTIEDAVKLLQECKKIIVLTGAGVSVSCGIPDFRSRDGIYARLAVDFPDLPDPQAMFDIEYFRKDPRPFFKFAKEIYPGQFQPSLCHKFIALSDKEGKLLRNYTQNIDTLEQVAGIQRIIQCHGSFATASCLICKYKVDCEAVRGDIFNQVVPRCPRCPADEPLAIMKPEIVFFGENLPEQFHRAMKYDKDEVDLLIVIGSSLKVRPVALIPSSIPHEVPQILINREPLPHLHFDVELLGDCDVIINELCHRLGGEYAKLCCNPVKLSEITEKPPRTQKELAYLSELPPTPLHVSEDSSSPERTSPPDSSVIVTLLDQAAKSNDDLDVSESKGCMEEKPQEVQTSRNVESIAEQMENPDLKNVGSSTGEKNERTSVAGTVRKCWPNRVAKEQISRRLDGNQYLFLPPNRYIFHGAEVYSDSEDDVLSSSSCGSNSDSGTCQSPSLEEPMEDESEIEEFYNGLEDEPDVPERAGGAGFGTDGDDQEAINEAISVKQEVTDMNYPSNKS
Test: deacetylation of synthetic acetylated Tat by immunoprecipitated SIRT1 with or without […] NAD+, Western blot
Type: biochemical

How did the “deacetylation of synthetic acetylated Tat by immunoprecipitated SIRT1 with or wi” value turn out when `NC(=O)c1ccc[n+]([C@@H]2O[C@H](COP(=O)([O-])OP(=O)(O)OC[C@H]3O[C@@H](n4cnc5c(N)ncnc54)[C@H](O)[C@@H]3O)[C@@H](O)[C@H]2O)c1` [NAD^+] was run?
Its value is “The SIRT1-mediated deacetylation of Tat was dependent on NAD^+”.
